Legend:
in vivo [1] = conditions: rat, po, 2 mg/kg
Cannabinoid receptor 2 = Cannabinoid receptor 2 (Homo sapiens, UniProt P34972)
Description: Inhibitory concentration tested against human Cannabinoid receptor 2 (hCB2)

in vivo [2] = conditions: rat, iv, 1 mg/kg
in vivo [3] = conditions: rat, iv, 1 mg/kg; remark: listed apart in the source
Description: Volume of distribution at steady state was determined in rat after intravenous administration of 1 mg/kg compound

in vivo [4] = conditions: rat, iv, 1 mg/kg; remark: listed apart in the source
Description: Half life period was determined in rat after intravenous administration of 1 mg/kg compound

Cannabinoid receptor 2, sequence (P34972 whole entry): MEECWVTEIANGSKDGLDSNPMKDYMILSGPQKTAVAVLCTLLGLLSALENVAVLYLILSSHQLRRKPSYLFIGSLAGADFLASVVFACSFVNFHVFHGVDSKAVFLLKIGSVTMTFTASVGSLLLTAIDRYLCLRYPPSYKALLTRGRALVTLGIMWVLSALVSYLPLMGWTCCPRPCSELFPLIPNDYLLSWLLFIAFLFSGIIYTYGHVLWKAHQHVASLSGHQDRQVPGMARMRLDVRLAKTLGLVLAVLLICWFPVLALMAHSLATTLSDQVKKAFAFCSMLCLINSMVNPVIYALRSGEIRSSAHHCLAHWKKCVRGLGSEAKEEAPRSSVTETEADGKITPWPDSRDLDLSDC

CCCNC(=O)c1cc(-c2ccc(Cl)cc2)c(-c2ccc(Cl)cc2Cl)nc1OCc1ccc(F)c(F)c1
bioavailability (in vivo [1]): 12%
IC50 (Cannabinoid receptor 2): 815 nM
clearance (in vivo [2]): 5.8 mL/min/kg
Vd (in vivo [3]): 0.4 L/kg
half-life (in vivo [4]): 2.5 h

Reference: ChEMBL document CHEMBL1144282, “Synthesis and SAR of 5,6-diarylpyridines as human CB1 inverse agonists” (Bioorg Med Chem Lett, 2005)
